Assay results reported in publication PMC6278341 (Molecules, 2018).
Where “and” joins values, the source holds several entries; their conditions need not be identical. Equal values may be shown once. Values belong to the compound of their own block, whether it stands above or below them.

Columns and labels:
[1] = Tissue stability, human plasma and brain homogenate; assay type: in vitro ADME; conditions: at least 30 min at 37 °C
Protocol: (§1) These tissues were stored frozen at −70 °C but thawed on the day of analysis. […] Plasma analysis was performed as reported previously.

[2] = Rat ex vivo measurements (radiometabolites and tissue concentrations); assay type: in vivo; conditions: for Unmetabolized [^11C]1: 30 min after i.v. injection
Protocol: The rats were then immediately sacrificed by decapitation, and their cortices, cerebella, and striata were excised. Each of the brain tissues was placed in MeCN (1 mL) and counted in a γ-counter. […] Water (500 μL) was then added and the tissues were further homogenized and counted in the γ-counter for calculating recoveries into MeCN. The homogenates were centrifuged at 10,000× g for 1 min. […] After separating plasma from blood cells, plasma samples (200 μL) were counted in γ-counter and plasma aliquots (450 μL) were each placed in MeCN (720 μL) along with of carrier 1 (5 μg) for deproteinization. After mixing the samples well, H2O (100 μL) was added. The samples were further mixed well, counted in a γ-counter, and centrifuged at 10,000× g for 1 min. Supernatants were injected onto the radio-HPLC and analyzed under the above conditions. All precipitates were counted in the γ-counter for calculating recoveries in the supernatants that were injected onto the HPLC.

[3] = Tissue stability, rat whole blood, plasma and brain homogenate; assay type: in vitro ADME; conditions: at least 30 min at 37 °C
Protocol: as §1

D3R [4] = assay: PET imaging in monkey; assay type: in vivo, rhesus macaque; conditions: for AUC 0-90 min higher than at baseline: tariquidar
Protocol: (§3) In some rats, tariquidar (16 mg/kg, i.v.) was administered at 15 min before radioligand injection. […] For experiments in mice (wild type and P-gp/BCRP knock-out; male; Taconic FVB.129P2-Abcb1a^tm1BorAbcb1b^tm1BorAbcg2^tm1AhsN7; 27 ± 1.1 g), scans were acquired with a microPET Focus 120 camera for a duration of 90 min. […] Monkey (male rhesus macaque, 9.9 kg) experiments were acquired using microPET Focus 220 (Siemens Medical Solutions, Knoxville TN) for a duration of 90 min.
(§4) Images were reconstructed using Fourier rebinning followed by 2D OSEM with attenuation correction for rats and monkey and without attenuation correction for mice. Scatter correction was applied only for monkey. Volume of interests were delineated manually for rats and mice, and with a co-registered MRI template for monkey. All radioactivity was decay-corrected and expressed as standardized uptake value (SUV) which is radioactivity concentration corrected for subject weight and administered dose. Time activity curves in SUV were obtained and compared between conditions. The PET data analysis was performed using PMOD.

[5] = Stability of formulated radioligand in saline containing ethanol; assay type: physicochemical; conditions: saline containing ethanol (10% v/v), up to 2.5 h; initial 99%
D3R [6] = target: T1, D3R (Rattus norvegicus, UniProt P19020); assay: PET imaging in rats; assay type: in vivo; conditions: for Peak brain radioactivity concentration: rat PET
T1 construct: from tissue; host or cells: brain of living Sprague-Dawley rats
T1 sequence (P19020 whole entry): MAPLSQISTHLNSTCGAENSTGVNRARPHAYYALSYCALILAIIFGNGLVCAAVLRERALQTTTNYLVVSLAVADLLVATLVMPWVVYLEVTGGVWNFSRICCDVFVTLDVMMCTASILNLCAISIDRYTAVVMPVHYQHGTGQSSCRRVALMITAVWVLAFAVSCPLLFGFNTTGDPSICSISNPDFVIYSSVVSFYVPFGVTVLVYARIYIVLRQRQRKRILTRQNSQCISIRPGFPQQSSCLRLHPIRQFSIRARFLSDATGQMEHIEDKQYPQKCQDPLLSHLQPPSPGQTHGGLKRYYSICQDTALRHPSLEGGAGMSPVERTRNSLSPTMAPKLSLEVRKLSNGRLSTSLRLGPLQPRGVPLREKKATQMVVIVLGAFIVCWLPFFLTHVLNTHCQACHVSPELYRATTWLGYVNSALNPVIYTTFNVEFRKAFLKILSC
Protocol: as §3, §4

[7] = Tissue stability, monkey brain homogenate; assay type: in vitro ADME; conditions: at least 30 min at 37 °C
Protocol: as §1

[8] = Cell uptake percentage in rat whole blood in vitro; assay type: in vitro ADME; conditions: in vitro at 37 °C, n = 3
Protocol: The capillary tubes were then centrifuged, and Hct determined using a StatSpin® CritSpin™ Microhematocrit system (Los Angeles, CA, USA). Aliquots of anticoagulated rat blood (250 µL) were placed in three Eppendorf tubes (1.5 mL). […] Then whole blood (50 µL) was removed from each tube and counted in the γ-counter. The tubes were then centrifuged before removing plasma (50 µL) for γ-counting.

P-gp/BCRP = assay: PET imaging in wild type and P-gp/BCRP knock-out mice; assay type: in vivo, mouse
Protocol: as §3, §4

[9] = Lipophilicity (logD7.4), 1-octanol/sodium phosphate buffer; assay type: physicochemical; conditions: room temperature, 1-octanol/sodium phosphate buffer pH 7.4, n = 6
Protocol: The radioligand in ethanol/saline was placed in sodium phosphate buffer (0.15 M, pH 7.4) for the duration of the experiment followed by the determination of its radiochemical purity to obtain information on its stability in buffer. […] Aliquots (1.0 mL) were distributed to eight borosilicate disposable culture tubes (13 × 100 mm). […] Radioactivities from six tubes were extracted with 1-octanol. Extraction was performed by vortexing the tubes with their content for 1 min. The tubes were centrifuged for 1 min. The organic and the aqueous phases were separated. Each phase was then sampled 50 μL and 200 μL respectively and counted separately in a well-type γ-counter (model 1480 Wizard; Perkin-Elmer) with an electronic window set between 360 and 1800 keV. The remaining two tubes, contained the radioactivity in buffer and served as stability measures for the radioligand. […] The radiochemical composition of the aqueous buffer after extraction with 1-octanol was determined with HPLC on an X-Terra C18 column (10 μm, 7.8 × 300 mm; Waters Corp., Milford, MA, USA) eluted with MeOH:H2O:Et3N (80:20:0.1 v/v/v) at 4.0 mL/min. […] The resulting radiochromatograms provided correction factors for the γ-counter counts to determine parent radioactivity only (corrected radioactivity). […] LogD7.4 was calculated according to the following formula:(1) logD7.4=log(cpm organic phase/corrected cpm aqueous phase)

[10] = Plasma free fraction by ultrafiltration; assay type: in vitro ADME; conditions: human plasma, n = 3; read-out: Human plasma free fraction (fp)
Protocol: The mixture was incubated at room temperature for 10 min and then processed as described previously. The ultrafiltration components that contained high radioactivity were allowed to decay to within the optimal range of the γ-counter before they were counted. Quantification of the ultrafiltrates was performed gravimetrically.

[11] = parameters: method as in PMID 19573609; conditions: cited from earlier work
D1 = D1 (Homo sapiens, UniProt P21728); assay: Off target binding, D1 receptor
D1, sequence (P21728 whole entry): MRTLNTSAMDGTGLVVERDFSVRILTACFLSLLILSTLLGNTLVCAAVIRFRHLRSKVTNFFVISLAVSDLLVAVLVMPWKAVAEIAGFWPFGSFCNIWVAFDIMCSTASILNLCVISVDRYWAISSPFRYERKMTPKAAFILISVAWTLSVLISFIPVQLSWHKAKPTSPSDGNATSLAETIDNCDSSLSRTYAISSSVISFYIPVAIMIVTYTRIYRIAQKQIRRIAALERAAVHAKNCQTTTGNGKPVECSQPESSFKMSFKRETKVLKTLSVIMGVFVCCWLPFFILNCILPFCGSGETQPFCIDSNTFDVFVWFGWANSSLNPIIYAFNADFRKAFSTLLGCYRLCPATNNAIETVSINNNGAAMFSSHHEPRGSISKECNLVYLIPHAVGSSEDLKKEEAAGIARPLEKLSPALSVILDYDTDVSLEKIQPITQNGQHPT
Source text: (§2) Off target screening data were obtained through the NIDA Addiction Treatment Discovery Program contract (ADA151001) with Oregon Health & Science University.

5-HT1A = target: T2, 5-HT1A (Homo sapiens, UniProt P08908); assay: Off target binding, 5-HT1A receptor
T2 sequence (P08908 1-422): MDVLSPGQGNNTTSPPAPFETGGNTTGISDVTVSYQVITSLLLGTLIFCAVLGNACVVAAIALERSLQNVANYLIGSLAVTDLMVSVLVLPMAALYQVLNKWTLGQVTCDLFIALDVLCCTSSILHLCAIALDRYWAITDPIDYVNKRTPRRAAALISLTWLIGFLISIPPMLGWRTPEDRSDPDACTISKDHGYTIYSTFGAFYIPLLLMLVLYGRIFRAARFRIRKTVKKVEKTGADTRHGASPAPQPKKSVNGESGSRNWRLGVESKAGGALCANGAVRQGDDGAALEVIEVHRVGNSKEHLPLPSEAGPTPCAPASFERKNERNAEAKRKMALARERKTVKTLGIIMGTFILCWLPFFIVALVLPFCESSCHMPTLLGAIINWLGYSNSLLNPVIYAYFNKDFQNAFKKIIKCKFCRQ
Source text: as §2

D4 = target: T3, D4 (Homo sapiens, UniProt P21917); assay: Off target binding, D4 receptor
T3 sequence (P21917 1-419): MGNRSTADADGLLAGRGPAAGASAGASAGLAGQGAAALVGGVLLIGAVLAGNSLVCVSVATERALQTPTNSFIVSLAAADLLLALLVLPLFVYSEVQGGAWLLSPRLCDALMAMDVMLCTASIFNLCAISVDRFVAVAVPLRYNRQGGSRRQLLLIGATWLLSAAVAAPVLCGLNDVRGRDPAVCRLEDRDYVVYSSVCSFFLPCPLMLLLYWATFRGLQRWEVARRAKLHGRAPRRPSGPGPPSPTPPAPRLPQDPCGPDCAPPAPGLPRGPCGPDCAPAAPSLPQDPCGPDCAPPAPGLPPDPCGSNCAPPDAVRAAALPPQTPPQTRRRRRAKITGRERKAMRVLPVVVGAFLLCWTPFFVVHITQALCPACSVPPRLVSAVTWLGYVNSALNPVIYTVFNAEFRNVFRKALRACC
Source text: as §2

5-HT2A = 5-HT2A (Homo sapiens, UniProt P28223); assay: Off target binding, 5-HT2A receptor
5-HT2A, sequence (P28223 whole entry, species assumed): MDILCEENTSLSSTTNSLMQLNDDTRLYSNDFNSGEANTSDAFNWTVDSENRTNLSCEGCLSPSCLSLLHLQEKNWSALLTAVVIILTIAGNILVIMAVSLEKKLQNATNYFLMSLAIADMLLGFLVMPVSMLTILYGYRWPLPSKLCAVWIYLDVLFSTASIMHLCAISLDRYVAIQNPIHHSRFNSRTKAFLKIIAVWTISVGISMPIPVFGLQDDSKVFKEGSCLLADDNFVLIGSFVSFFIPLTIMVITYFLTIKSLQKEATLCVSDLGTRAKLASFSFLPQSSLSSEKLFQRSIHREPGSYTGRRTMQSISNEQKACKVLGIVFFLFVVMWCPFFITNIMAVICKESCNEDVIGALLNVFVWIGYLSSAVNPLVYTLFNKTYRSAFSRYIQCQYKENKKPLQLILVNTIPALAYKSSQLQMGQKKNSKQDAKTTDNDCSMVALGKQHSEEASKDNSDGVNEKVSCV
Source text: as §2

stability ([1]; human brain homogenate): 99.8%
stability ([1]; human plasma): 99.3%
increase of rat brain tissue concentration, tariquidar-treated vs untreated ([2]; ex vivo, 30 min, tariquidar 16 mg/kg i.v.): 2.4–2.6 fold
Unmetabolized [^11C]1 ([2]; rat cerebellum, baseline): 98.8%
[^11C]1 Concentration ([2]; rat cerebellum, baseline, ex vivo 30 min): 1.20 SUV
Unmetabolized [^11C]1 ([2]; rat cerebellum, tariquidar-treated): 98.8%
[^11C]1 Concentration ([2]; rat cerebellum, tariquidar-treated, ex vivo 30 min): 2.84 SUV
Unmetabolized [^11C]1 ([2]; rat cortex, baseline): 99.0%
[^11C]1 Concentration ([2]; rat cortex, baseline, ex vivo 30 min): 1.33 SUV
Unmetabolized [^11C]1 ([2]; rat cortex, tariquidar-treated): 98.7%
[^11C]1 Concentration ([2]; rat cortex, tariquidar-treated, ex vivo 30 min): 3.49 SUV
Unmetabolized [^11C]1 ([2]; rat plasma, baseline): 76% and 76.1%
[^11C]1 Concentration ([2]; rat plasma, baseline, ex vivo 30 min after i.v. injection): 0.06 SUV
[^11C]1 Concentration ([2]; rat plasma, tariquidar-treated (16 mg/kg, i.v.), ex vivo 30 min): 0.04 SUV
Unmetabolized [^11C]1 ([2]; rat plasma, tariquidar-treated): 69% and 68.9%
Unmetabolized [^11C]1 ([2]; rat striatum, baseline): 99.3%
[^11C]1 Concentration ([2]; rat striatum, baseline, ex vivo 30 min): 1.36 SUV
Unmetabolized [^11C]1 ([2]; rat striatum, tariquidar-treated): 98.8%
[^11C]1 Concentration ([2]; rat striatum, tariquidar-treated, ex vivo 30 min): 3.53 SUV
[^11C]1 Concentration ([2]; rat whole blood, baseline, ex vivo 30 min): 0.09 SUV
[^11C]1 Concentration ([2]; rat whole blood, tariquidar-treated, ex vivo 30 min): 0.07 SUV
stability ([3]; rat brain homogenate): 99.4%
stability ([3]; rat plasma): 98.8%
stability ([3]; rat whole blood): 100%
peak whole brain radioactivity uptake (D3R [4]; baseline): 2−3 SUV
AUC 0-90 min higher than at baseline (D3R [4]; occipital cortex): ~ 20%
AUC 0-90 min higher than at baseline (D3R [4]; putamen): 70%
radiochemical purity after storage (stability) [5]: 96%
Peak brain radioactivity concentration (D3R [6]; after tariquidar (16 mg/kg, i.v.)): 3.4 SUV
Peak brain radioactivity concentration (D3R [6]; baseline): 1.1 SUV
change in brain TACs on BP897 challenge (D3R [6]; rats, tariquidar 16 mg/kg i.v., BP897 0.5 mg/kg i.v. 10 min before or 15 min after radioligand): No major changes
change in brain TACs on spiperone challenge (D3R [6]; rats, tariquidar 16 mg/kg i.v., spiperone 1.0 mg/kg i.v. 10 min before or 15 min after radioligand): No obvious changes
stability [7]: 100%
cellular uptake in rat whole blood [8]: 55.2 ± 1.1%
peak brain uptake (P-gp/BCRP; P-gp/BCRP KO mice): 1.6 SUV
efflux transporter substrate behaviour (P-gp/BCRP; rodents): avid brain efflux transporter substrate
peak brain uptake (P-gp/BCRP; wild type mice): 0.7 SUV
logD [9]: 3.33 ± 0.13
fraction unbound at 10 min [10]: 0.0015 ± 0.0001
SMILES: [11CH3]Oc1c(Cl)cccc1N1CCN(CCCCNC(=O)c2cc3ccccc3[nH]2)CC1 [[^11C]1, [O-methyl-^11C]N-(4-(4-(3-Chloro-2-methoxyphenyl)-piperazin-1-yl)butyl)-1H-indole-2-carboxamide]

melting point: 148 to 149 °C
SMILES: O=C(NCCCCN1CCN(c2cccc(Cl)c2O)CC1)c1cc2ccccc2[nH]1 [Compound 2, N-(4-(4-(3-Chloro-2-hydroxyphenyl)piperazin-1-yl)butyl)-1H-indole-2-carboxamide]

SMILES: C[C@@H](N[C@@H]1C[C@H](c2cccc(O[11CH3])c2)N(c2ccc(C(F)(F)F)cc2)C1=O)c1ccccc1 [[^11C]MePPEP]
plasma free fraction (fp) [11]: 0.05 ± 0.01%

Ki (D1): 2290 ± 340 nM
Ki (5-HT1A): 92.3 ± 8 nM
Ki (D4): 300 ± 100 nM
Ki (5-HT2A): 19.7 ± 1.4 nM
SMILES: COc1c(Cl)cccc1N1CCN(CCCCNC(=O)c2cc3ccccc3[nH]2)CC1 [Compound 1, N-(4-(4-(3-chloro-2-methoxyphenyl)piperazin-1-yl)butyl)-1H-indole-2-carboxamide]
